According to patent publication US20230040081A1 (priority 2019, published 2023):
“And” between values parts separate entries of the source, which are not always exact repeats. Equal values may be shown once.

What was measured:
viral RNA polymerase [1] = assay: Potential inhibitors: Results Screen; assay type: biochemical; conditions: test concentration not given
Procedure: (§1) Compound stocks were prepared at a concentration of 1 mM in 65% DMSO, at a volume of 5 μL each.

viral RNA polymerase [2] = assay: Potential inhibitors: Results Hit validation; assay type: biochemical; conditions: test concentration not given
Procedure: as §1

Clopt1 (Vaccinia virus) [3] = assay type: cell-based
Clopt1 (Vaccinia virus) [4] = assay type: cell-based; remark: listed apart in the source

SMILES | Results Screen Median Screen (% inhibition) (viral RNA polymerase [1]) | Results Hit validation Median (% inhibition) (viral RNA polymerase [2]) | intensity, times lower without glutamine in the third medium switch than counterparts (Clopt1 (Vaccinia virus) [3]) | final intensity, times lower in glutamine absence than in glutamine fed samples (Clopt1 (Vaccinia virus) [3]; after 21 hours) | Factor (Clopt1 (Vaccinia virus) [4]) | virus replication, times higher with glutamine in the third medium switch than negative counterparts (Clopt1 (Vaccinia virus) [4])
CC[C@H](C)/C=C(C)/C=C/C(=O)Cc1cc(O)c(C)c(O)c1C=O [AD153413-17_A5] | 71 | 70.9 |  |  |  | 
C/C=C/c1ccc2c(c1)[C@H](C)[C@@H](c1ccc(O)cc1)O2 [AD153413-19_H4] | 98.8 | 50.8 |  |  |  | 
O=C1c2ccc(O)cc2O[C@H](c2ccc(O)c(O)c2)[C@H]1O [AD153413-21_A6] | 68.8 | 54.7 |  |  |  | 
COc1ccc2c(c1)OC1c3ccc(OC)cc3OCC21 (stereo not drawn) [AD153413-01_A10] | 84.5 | 77.6 |  |  |  | 
COC(=O)C1=COC(OC2O[C@@H](CO)[C@H](O)[C@@H](O)[C@@H]2O)[C@H]2C1C=CC21C=C(C(C)CC(=O)/C=C/c2ccc(O)cc2)C(=O)O1 (stereo partly drawn) [AD153413-23_G3] | 60.5 | 61.7 |  |  |  | 
CC(=O)O[C@H]1CC[C@]2(C)C(CC[C@@]3(C)C2[C@@H](O)C=C2[C@@H]4[C@H](C)[C@@H](C)CC[C@@]4(C)CC[C@@]23C)[C@]1(C)C(C)=O (stereo partly drawn) [AD153413-25_A8] | 73.8 | 86.3 |  |  |  | 
O=C(OC[C@@H]1O[C@H](Oc2ccc(O)cc2CO)[C@@H](O)[C@H](O)[C@H]1O)c1ccccc1 (racemic) [AD153413-11_H9] | 60.5 | 54.9 |  |  |  | 
COc1cc(C)cc(C(=O)O)c1C1=C(O)C(=O)c2c(O)cccc2C1=O [AD153413-06_A10] | 72.4 | 64.1 |  |  |  | 
COc1cc(C2c3c(cc(OC)c(O)c3O)CC(CO)C2CO[C@H]2O[C@@H](C(=O)O)[C@H](O)[C@@H](O)[C@@H]2O)cc(OC)c1O (stereo partly drawn) [AD153413-11_A11] | 83 | 57.1 |  |  |  | 
COc1cc(OC)cc([C@@H](C)C(=O)c2ccc(O)cc2O)c1 [AD153413-09_A6] | 81.1 | 64.2 |  |  |  | 
CC[C@H](C1=C(O)C(C)(C)C(=O)C(C)(C)C1=O)c1c(O)cc(O)c(C(=O)C(C)C)c1O [AD153413-09_B9] | 85.2 | 61.5 |  |  |  | 
COc1cc(-c2oc3cc(O[C@H]4O[C@@H](CO)[C@H](O)[C@@H](O)[C@@H]4O)c(OC)c(O)c3c(=O)c2OC)ccc1O [AD153413-17_A6] | 77.1 | 62.2 |  |  |  | 
CCCCC(C)C(=O)C(CC(C)CCCCCCC(O)CC(O)C(C)NC(C)=O)OC(=O)CC(CC(=O)O)C(=O)O (stereo not drawn) [AD153413-12_D11] | 73.7 | 50.1 |  |  |  | 
CC1(C)C2CC[C@]3(C)C(C(=O)C=C4[C@H]5C[C@@](C)(C(=O)O)CC[C@]5(C)CC[C@]43C)[C@@]2(C)CC[C@@H]1O (stereo partly drawn) [AD153413-01_B11] | 75.6 | 72.1 |  |  |  | 
NC(=O)CC[C@H](N)C(=O)O [glutamine, L-glutamine] |  |  | roughly 100 times | over 100 times | 1222 and 1468 and 1774 and 2000 | more than 1000 times
COC(=O)[C@H](Cc1ccccc1)NC(=O)c1ccccc1 [AD153413-18_A11] | 81 | 60.6 |  |  |  | 
O=C(O)/C=C/c1ccccc1O[C@H]1O[C@@H](CO)[C@H](O)[C@@H](O)[C@@H]1O [AD153413-02_F8] | 86.7 | 44 |  |  |  | 
Oc1cc(O)cc(CCC/C=C\CCCCCCCCCc2cc(O)cc(O)c2)c1 [AD153413-03_H2] | 73.1 | 48.9 |  |  |  | 
O=C(/C=C/c1ccc(O)c2c1C(C(=O)O)C(c1ccc(O)c(O)c1)O2)OC(Cc1ccc(O)c(O)c1)C(=O)O (stereo not drawn) [AD153413-16_E3] | 77.7 | 55.9 |  |  |  | 
C=C(/C=C/[C@@H](CCC(=O)O)C(C)C)CCC(C)=O [AD153413-08_B4] | 73.6 | 41.9 |  |  |  | 
